Legend:
[1] = target: T1, Prostaglandin D2 receptor 2 (Homo sapiens) (UniProt Q9Y5Y4); test: Binding affinity to CRTh2 receptor (unknown origin) overexpressed in CHOK1 cell membranes assessed as dissociation half life at 10 times IC50 concentration preincubated for 1 hr with 0.1 nM to 100 uM PGD2 and [35S]-GTPgammaS by liquid scintillation counting analysis; format: functional; details: CHO-K1
T1 sequence (whole entry): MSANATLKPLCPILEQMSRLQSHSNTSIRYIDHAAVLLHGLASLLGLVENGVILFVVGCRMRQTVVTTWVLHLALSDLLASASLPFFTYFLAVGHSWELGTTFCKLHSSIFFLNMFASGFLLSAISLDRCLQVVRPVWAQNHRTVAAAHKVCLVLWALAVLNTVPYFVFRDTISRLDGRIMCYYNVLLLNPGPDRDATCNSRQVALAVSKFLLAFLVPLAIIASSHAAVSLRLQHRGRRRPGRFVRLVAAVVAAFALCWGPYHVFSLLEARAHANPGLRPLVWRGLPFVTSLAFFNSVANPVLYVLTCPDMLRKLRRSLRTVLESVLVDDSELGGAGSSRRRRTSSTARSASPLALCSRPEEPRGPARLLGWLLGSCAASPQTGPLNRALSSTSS

[2] = target: T2, Prostaglandin D2 receptor 2 (Homo sapiens, UniProt Q9Y5Y4); test: Antagonist activity at CRTh2 receptor (unknown origin) overexpressed in CHOK1 cell membranes assessed as inhibition of [35S]-GTPgammaS binding measured after 2 hrs by liquid scintillation counting analysis; format: functional, CHO-K1
T2 sequence (Q9Y5Y4 whole entry): T1 sequence (whole entry)

[3] = AUC (0 to infinity) in Wistar rat at 1 mg/kg, iv; format: ADME, organism-based; set-up: time infinity, dose 1 mg/kg, route intravenous; details: plasma
[4] = Terminal half life in Wistar rat at 1 mg/kg, iv; format: ADME, organism-based; set-up: dose 1 mg/kg, route intravenous; details: in vivo, read-out: beta t1/2 (converted)
[5] = Clearance in Wistar rat at 1 mg/kg, iv; format: ADME, organism-based; set-up: dose 1 mg/kg, route intravenous; details: in vivo
[6] = Volume of distribution at steady state in Wistar rat at 1 mg/kg, iv; format: ADME, organism-based; set-up: dose 1 mg/kg, route intravenous; details: in vivo, read-out: Vdss
[7] = Cmax in Wistar rat at 1 mg/kg, iv; format: ADME, organism-based; set-up: dose 1 mg/kg, route intravenous; details: in vivo
[8] = Mean residence time in Wistar rat at 1 mg/kg, iv; format: ADME, organism-based; set-up: dose 1 mg/kg, route intravenous; details: in vivo
[9] = Oral bioavailability in Wistar rat at 10 mg/kg; format: ADME, organism-based; details: in vivo

Row | SMILES | T1/2 [1] | IC50 [2] | other results
1 | CCN(Cc1cc(C(F)(F)F)ccc1-n1cc(CC(=O)O)c2ccc(C)nc21)C(C)=O | 6.4 h | – | –
2 | CCN(Cc1cc(C(F)(F)F)ccc1-n1cc(CC(=O)O)c2ccc(C(F)(F)F)nc21)C(=O)C1CC1 | – | 54 nM | –
3 | CCN(Cc1cc(F)ccc1-c1cn(CC(=O)O)c2ccc(C(F)(F)F)cc12)C(=O)C1CC1 | 20 h | 14 nM | –
4 | CCN(Cc1cc(C(F)(F)F)ccc1-c1nn(CC(=O)O)c2ccc(Cl)c(F)c12)C(=O)C1CC1 | 10.5 h | 15 nM | –
5 | CCN(Cc1cc(F)ccc1-n1cc(CC(=O)O)c2cccnc21)C(=O)C1CC1 | 1.3 h | – | –
6 | CCN(Cc1ccccc1-n1cc(CC(=O)O)c2ccc(C(F)(F)F)cc21)C(=O)C1CC1 | 27 h | 11 nM | AUC(0-inf) [3]: 1070 ng·h/mL; half-life [4]: 6.6 h; clearance [5]: 16 mL/min/kg; Vd [6]: 3.2 L/kg; Cmax [7]: 1900 ng/mL; MRT [8]: 3.4 h
7 | CCN(Cc1cc(C(F)(F)F)ccc1-c1nn(CC(=O)O)c2cccc(Cl)c12)C(=O)C1CC1 | 3.2 h | 6.3 nM | –
8 | CCN(Cc1cc(C(F)(F)F)ccc1-n1cc(CC(=O)O)c2cccnc21)C(=O)C1CC1 | 2.3 h | – | –
9 | CCN(Cc1ccccc1-n1cc(CC(=O)O)c2ccc(C)nc21)C(=O)C1CC1 | 8.8 h | – | –
10 | CCN(Cc1cc(C(F)(F)F)ccc1-c1nn(CC(=O)O)c2cccc(F)c12)C(=O)C1CC1 | 5 h | 4.3 nM | –
11 | CCN(Cc1cc(C)ccc1-n1cc(CC(=O)O)c2ccc(C)nc21)C(=O)C1CC1 | 24 h | 5.9 nM | –
12 | CCN(Cc1cc(C(F)(F)F)ccc1-c1nn(CC(=O)O)c2ccccc12)C(=O)C1CC1 | – | 19 nM | –
13 | COCCN(Cc1cc(C(F)(F)F)ccc1-n1cc(CC(=O)O)c2ccc(C)nc21)C(=O)C1CC1 | 7 h | 4 nM | –
14 | CCN(Cc1cc(C(F)(F)F)ccc1-n1cc(CC(=O)O)c2ccc(OC)nc21)C(=O)C1CC1 | – | 135 nM | –
15 | CCN(Cc1cc(C(F)(F)F)ccc1-n1cc(CC(=O)O)c2ccc(C)nc21)C(=O)c1ccccn1 | – | 97 nM | –
16 | Cc1ccc2c(CC(=O)O)cn(-c3ccc(C(F)(F)F)cc3CN(CCOc3ccccc3)C(=O)C3CC3)c2n1 | 40 h | 4 nM | –
17 | CCN(Cc1cc(C(F)(F)F)ccc1-c1nn(CC(=O)O)c2cccc(OC)c12)C(=O)C1CC1 | 2.4 h | 23 nM | –
18 | Cc1ccc2c(CC(=O)O)cn(-c3ccc(C(F)(F)F)cc3CN(CCO)C(=O)C3CC3)c2n1 | 7.8 h | 14 nM | –
19 | CCN(Cc1cc(F)ccc1-n1cc(CC(=O)O)c2ccc(C)nc21)C(=O)C1CC1 | 11 h | 4.7 nM | –
20 | CCN(Cc1cc(OC(F)(F)F)ccc1-n1cc(CC(=O)O)c2ccc(C)nc21)C(=O)C1CC1 | 16 h | 5.8 nM | –
21 | CCN(Cc1cc(C(F)(F)F)ccc1-n1cc(CC(=O)O)c2ccc(C)nc21)C(=O)Cc1ccccc1 | 24 h | 6 nM | –
22 | CCN(Cc1cc(S(C)(=O)=O)ccc1-n1cc(CC(=O)O)c2ccc(C)nc21)C(=O)C1CC1 | – | 40 nM | –
23 | CCN(Cc1cc(C(F)(F)F)ccc1-n1cc(CC(=O)O)c2ccc(C)nc21)C(=O)C1CC1 | 21 h | 10 nM | AUC(0-inf) [3]: 1220 ng·h/mL; bioavailability [9]: 27%; half-life [4]: 4.9 h; clearance [5]: 14 mL/min/kg; Vd [6]: 1.8 L/kg; Cmax [7]: 1610 ng/mL; MRT [8]: 2.3 h
24 | CCN(Cc1cc(C(F)(F)F)ccc1-c1nn(CC(=O)O)c2ccc(F)cc12)C(=O)C1CC1 | 1.4 h | – | –
25 | CCN(Cc1cc(C(F)(F)F)ccc1-c1nn(CC(=O)O)c2ccc(Cl)cc12)C(=O)C1CC1 | 2.8 h | – | –

Row | SMILES | T1/2 [1] | IC50 [2] | other results
26 | CCN(Cc1cc(C(F)(F)F)ccc1-c1cn(CC(=O)O)c2ccc(C)nc12)C(=O)C1CC1 | 21 h | 17 nM | AUC(0-inf) [3]: 126 ng·h/mL; half-life [4]: 0.5 h; clearance [5]: 134 mL/min/kg; Vd [6]: 2.7 L/kg; Cmax [7]: 366 ng/mL; MRT [8]: 0.3 h
27 | CCN(Cc1cc(C(F)(F)F)ccc1-n1cc(CC(=O)O)c2ccc(C)nc21)C(=O)NCc1ccccc1 | 26 h | 5 nM | –
28 | CCN(Cc1cc(C(F)(F)F)ccc1-n1cc(CC(=O)O)c2ccc(C)cc21)C(=O)C1CC1 | – | 119 nM | –
29 | CCN(Cc1cc(C(F)(F)F)ccc1-n1cc(CC(=O)O)c2ccc(C)nc21)C(=O)CN(C)C | – | 163 nM | –
30 | CCN(Cc1cc(C(F)(F)F)ccc1-n1cc(CC(=O)O)c2ccc(C)nc21)C(=O)CC1CC1 | 22 h | 7 nM | –
31 | CCN(Cc1cc(C(F)(F)F)ccc1-c1cc(CC(=O)O)c2ccc(C)nn12)C(=O)C1CC1 | 26 h | 4.2 nM | –
32 | CCN(Cc1cc(C(F)(F)F)ccc1-c1cc(CC(=O)O)n2ccc(C)nc12)C(=O)C1CC1 | 19 h | – | –
33 | CCN(Cc1cc(C(F)(F)F)ccc1-c1cn(CC(=O)O)c2ccc(C(F)(F)F)nc12)C(=O)C1CC1 | 25 h | 15 nM | –
34 | CCN(Cc1cc(F)ccc1-c1cn(CC(=O)O)c2ccccc12)C(=O)C1CC1 | 2 h | – | AUC(0-inf) [3]: 222 ng·h/mL; half-life [4]: 1.9 h; clearance [5]: 76 mL/min/kg; Vd [6]: 5.4 L/kg; Cmax [7]: 431 ng/mL; MRT [8]: 1.2 h
35 | CCN(Cc1cc(C(F)(F)F)ccc1-n1cc(CC(=O)O)c2ccc(C3CC3)nc21)C(=O)C1CC1 | 5.4 h | 49 nM | –
36 | Cc1ccc2c(CC(=O)O)cn(-c3ccc(C(F)(F)F)cc3CN(C(=O)C3CC3)C(C)C)c2n1 | 9.2 h | 28 nM | –
37 | CCN(Cc1cc(C(F)(F)F)ccc1-c1nn(CC(=O)O)c2ccc(F)c(Cl)c12)C(=O)C1CC1 | 3.3 h | – | –
38 | CCN(Cc1cc(Cl)ccc1-n1cc(CC(=O)O)c2ccc(C)nc21)C(=O)C1CC1 | 31 h | 5.2 nM | –
39 | CCN(Cc1cc(C(F)(F)F)ccc1-c1cn(CC(=O)O)c2cccnc12)C(=O)C1CC1 | 1.9 h | 20 nM | –
40 | CCN(Cc1cc(C(F)(F)F)ccc1-n1cc(CC(=O)O)c2ccc(C)nc21)C(=O)C1CCC1 | 24 h | 10 nM | –
41 | Cc1ccc2c(CC(=O)O)cn(-c3ccc(C(F)(F)F)cc3CN(CC3CC3)C(=O)C3CC3)c2n1 | 32 h | 11 nM | –
42 | CCN(Cc1cc(C(F)(F)F)ccc1-c1nn(CC(=O)O)c2ccc(C)cc12)C(=O)C1CC1 | 1.8 h | 9 nM | –
43 | CCN(Cc1cc(C(F)(F)F)ccc1-n1cc(CC(=O)O)c2ccc(C(F)F)nc21)C(=O)C1CC1 | 29 h | 11 nM | –
44 | CCN(Cc1cc(C(F)(F)F)ccc1-n1cc(CC(=O)O)c2ccc(C)nc21)C(=O)COC | 21 h | 9 nM | –
45 | CCN(Cc1cc(C(F)(F)F)ccc1-c1nn(CC(=O)O)c2cccc(C#N)c12)C(=O)C1CC1 | 1.2 h | 33 nM | –
46 | CCN(Cc1cc(C(F)(F)F)ccc1-c1nn(CC(=O)O)c2cc(F)ccc12)C(=O)C1CC1 | – | 127 nM | –
47 | CCN(Cc1cc(C(F)(F)F)ccc1-n1cc(CC(=O)O)c2ccccc21)C(=O)C1CC1 | 2.5 h | – | –
48 | CCN(Cc1cc(C(F)(F)F)ccc1-c1cc(CC(=O)O)n2cccnc12)C(=O)C1CC1 | 2 h | – | AUC(0-inf) [3]: 639 ng·h/mL; half-life [4]: 4.6 h; clearance [5]: 26 mL/min/kg; Vd [6]: 4.2 L/kg; Cmax [7]: 910 ng/mL; MRT [8]: 2.6 h
49 | CCc1ccc2c(CC(=O)O)cn(-c3ccc(C(F)(F)F)cc3CN(CC)C(=O)C3CC3)c2n1 | 9.9 h | 10 nM | –
50 | CCN(Cc1cc(C(F)(F)F)ccc1-c1nn(CC(=O)O)c2cccc(C)c12)C(=O)C1CC1 | 2.3 h | – | –

Source: ChEMBL document CHEMBL3352411, “Structure-activity relationships (SAR) and structure-kinetic relationships (SKR) of bicyclic heteroaromatic acetic acids as potent CRTh2 antagonists II: lead optimization” (Bioorg Med Chem Lett, 2014)
